“And” between values parts separate entries of the source, which are not always exact repeats. Equal values may be shown once.
Legend:
[1] = target: AMP-activated protein kinase, AMPK; experiment: AMP-dependent Kinase enzyme assay. An in vitro enzyme assay that detects ADP turnover that is directly proportional to AMPK activity. This uses naive AMPK that is activated during the assay with MK-8722; assay type: functional, Homo sapiens
[2] = target: T1, Coenzyme A biosynthesis bifunctional protein CoaBC (Mycobacterium tuberculosis (strain ATCC 25618 / H37Rv), UniProt P9WNZ1); experiment: Biomol Green assay for MtCoaBC inhibitor, OD650 read; assay type: functional
T1 sequence (P9WNZ1 whole entry): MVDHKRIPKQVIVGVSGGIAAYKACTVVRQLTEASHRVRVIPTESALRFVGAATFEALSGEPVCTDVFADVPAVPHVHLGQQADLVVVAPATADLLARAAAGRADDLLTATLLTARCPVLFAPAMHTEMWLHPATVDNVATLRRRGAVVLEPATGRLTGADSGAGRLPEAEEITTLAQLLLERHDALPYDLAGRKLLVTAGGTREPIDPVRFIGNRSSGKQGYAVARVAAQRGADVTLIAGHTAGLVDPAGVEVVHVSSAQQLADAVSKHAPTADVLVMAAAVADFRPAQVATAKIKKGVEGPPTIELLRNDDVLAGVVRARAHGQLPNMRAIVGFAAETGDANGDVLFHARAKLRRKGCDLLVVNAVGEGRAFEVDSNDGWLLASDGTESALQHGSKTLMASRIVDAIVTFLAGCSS

[3] = target: Polyketide synthase Pks13 (Mycobacterium tuberculosis (strain ATCC 25618 / H37Rv), UniProt I6X8D2); experiment: Mycobacterium tuberculosis Polyketide synthase 13 Thioesterase (PKS13); assay type: functional
Plasmodium falciparum = experiment: Calibr Malaria Delayed Death Assay SOP; assay type: functional, organism-based; conditions: for IC50: Plasmodium falciparum
Schistosoma mansoni = experiment: High throughput screening of compounds against Schistosoma mansoni motility; assay type: functional; set-up: dose or concentration left out as unconfirmed
Leishmania donovani = experiment: Leishmania intramacrophage assay; assay type: functional, organism-based; conditions: Leishmania donovani
Histidine--tRNA ligase [4] = target: T2, Histidine--tRNA ligase (Leishmania infantum, UniProt A4I591); experiment: Leishmania infantum Histidine tRNA synthetase (LdHisRS); assay type: functional
T2 sequence (A4I591 whole entry): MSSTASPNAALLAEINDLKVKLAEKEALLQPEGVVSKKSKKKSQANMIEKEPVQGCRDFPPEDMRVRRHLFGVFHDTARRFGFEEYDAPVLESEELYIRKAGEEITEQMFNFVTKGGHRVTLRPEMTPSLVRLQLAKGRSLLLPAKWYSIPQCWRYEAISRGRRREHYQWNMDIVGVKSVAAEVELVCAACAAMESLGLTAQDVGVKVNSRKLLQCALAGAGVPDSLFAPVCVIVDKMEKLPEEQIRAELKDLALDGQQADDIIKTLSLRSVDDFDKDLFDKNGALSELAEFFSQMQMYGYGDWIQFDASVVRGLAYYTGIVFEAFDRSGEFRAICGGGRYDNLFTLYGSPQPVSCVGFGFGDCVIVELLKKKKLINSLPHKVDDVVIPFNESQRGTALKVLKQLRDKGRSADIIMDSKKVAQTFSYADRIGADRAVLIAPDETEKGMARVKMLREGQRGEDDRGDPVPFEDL

Histidine--tRNA ligase [5] = target: T3, Histidine--tRNA ligase (Trypanosoma cruzi (strain CL Brener), UniProt Q4DA54); experiment: Trypanosoma cruzi histidyl tRNA synthetase (Tc-HisRS); assay type: functional
T3 sequence (Q4DA54 whole entry): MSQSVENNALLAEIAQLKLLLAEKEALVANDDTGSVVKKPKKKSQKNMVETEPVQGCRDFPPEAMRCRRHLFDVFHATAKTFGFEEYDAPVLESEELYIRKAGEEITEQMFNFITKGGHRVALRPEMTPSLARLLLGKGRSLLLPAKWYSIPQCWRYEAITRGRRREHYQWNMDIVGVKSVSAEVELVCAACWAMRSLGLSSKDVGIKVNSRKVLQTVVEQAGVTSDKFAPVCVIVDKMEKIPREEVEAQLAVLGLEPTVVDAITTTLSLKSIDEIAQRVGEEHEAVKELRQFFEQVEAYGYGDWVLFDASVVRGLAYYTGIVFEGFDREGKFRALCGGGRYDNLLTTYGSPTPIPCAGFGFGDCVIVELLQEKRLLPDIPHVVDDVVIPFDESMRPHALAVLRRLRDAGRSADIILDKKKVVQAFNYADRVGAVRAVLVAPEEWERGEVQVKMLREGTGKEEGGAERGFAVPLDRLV

Lysine--tRNA ligase = Lysine--tRNA ligase (Plasmodium falciparum (isolate 3D7), UniProt Q8IDJ8); experiment: Pf-KRS-1 (Lysyl-RNA Synthetase-1, KRS-1, cytosolic KRS) from Plasmodium falciparum. Inhibitor assay, 384 well plate, luminescence read.; assay type: functional
Chain of Lysine--tRNA ligase (Q8IDJ8 whole entry): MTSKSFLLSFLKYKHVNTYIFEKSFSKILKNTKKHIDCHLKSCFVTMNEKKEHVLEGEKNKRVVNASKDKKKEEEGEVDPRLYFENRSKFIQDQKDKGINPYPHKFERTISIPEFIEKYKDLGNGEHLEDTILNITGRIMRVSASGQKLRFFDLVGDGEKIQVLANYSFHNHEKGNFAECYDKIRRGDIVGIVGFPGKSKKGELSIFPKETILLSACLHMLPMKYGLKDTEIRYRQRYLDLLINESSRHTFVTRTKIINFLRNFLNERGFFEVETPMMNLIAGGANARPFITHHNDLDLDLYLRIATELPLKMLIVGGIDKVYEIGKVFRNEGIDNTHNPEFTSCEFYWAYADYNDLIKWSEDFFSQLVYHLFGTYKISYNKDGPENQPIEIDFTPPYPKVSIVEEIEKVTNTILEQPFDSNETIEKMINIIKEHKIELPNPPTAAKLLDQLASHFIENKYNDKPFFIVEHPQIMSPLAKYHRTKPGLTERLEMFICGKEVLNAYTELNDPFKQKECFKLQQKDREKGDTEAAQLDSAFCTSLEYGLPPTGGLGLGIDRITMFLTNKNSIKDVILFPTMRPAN

Chain of Polyketide synthase Pks13 (I6X8D2 whole entry): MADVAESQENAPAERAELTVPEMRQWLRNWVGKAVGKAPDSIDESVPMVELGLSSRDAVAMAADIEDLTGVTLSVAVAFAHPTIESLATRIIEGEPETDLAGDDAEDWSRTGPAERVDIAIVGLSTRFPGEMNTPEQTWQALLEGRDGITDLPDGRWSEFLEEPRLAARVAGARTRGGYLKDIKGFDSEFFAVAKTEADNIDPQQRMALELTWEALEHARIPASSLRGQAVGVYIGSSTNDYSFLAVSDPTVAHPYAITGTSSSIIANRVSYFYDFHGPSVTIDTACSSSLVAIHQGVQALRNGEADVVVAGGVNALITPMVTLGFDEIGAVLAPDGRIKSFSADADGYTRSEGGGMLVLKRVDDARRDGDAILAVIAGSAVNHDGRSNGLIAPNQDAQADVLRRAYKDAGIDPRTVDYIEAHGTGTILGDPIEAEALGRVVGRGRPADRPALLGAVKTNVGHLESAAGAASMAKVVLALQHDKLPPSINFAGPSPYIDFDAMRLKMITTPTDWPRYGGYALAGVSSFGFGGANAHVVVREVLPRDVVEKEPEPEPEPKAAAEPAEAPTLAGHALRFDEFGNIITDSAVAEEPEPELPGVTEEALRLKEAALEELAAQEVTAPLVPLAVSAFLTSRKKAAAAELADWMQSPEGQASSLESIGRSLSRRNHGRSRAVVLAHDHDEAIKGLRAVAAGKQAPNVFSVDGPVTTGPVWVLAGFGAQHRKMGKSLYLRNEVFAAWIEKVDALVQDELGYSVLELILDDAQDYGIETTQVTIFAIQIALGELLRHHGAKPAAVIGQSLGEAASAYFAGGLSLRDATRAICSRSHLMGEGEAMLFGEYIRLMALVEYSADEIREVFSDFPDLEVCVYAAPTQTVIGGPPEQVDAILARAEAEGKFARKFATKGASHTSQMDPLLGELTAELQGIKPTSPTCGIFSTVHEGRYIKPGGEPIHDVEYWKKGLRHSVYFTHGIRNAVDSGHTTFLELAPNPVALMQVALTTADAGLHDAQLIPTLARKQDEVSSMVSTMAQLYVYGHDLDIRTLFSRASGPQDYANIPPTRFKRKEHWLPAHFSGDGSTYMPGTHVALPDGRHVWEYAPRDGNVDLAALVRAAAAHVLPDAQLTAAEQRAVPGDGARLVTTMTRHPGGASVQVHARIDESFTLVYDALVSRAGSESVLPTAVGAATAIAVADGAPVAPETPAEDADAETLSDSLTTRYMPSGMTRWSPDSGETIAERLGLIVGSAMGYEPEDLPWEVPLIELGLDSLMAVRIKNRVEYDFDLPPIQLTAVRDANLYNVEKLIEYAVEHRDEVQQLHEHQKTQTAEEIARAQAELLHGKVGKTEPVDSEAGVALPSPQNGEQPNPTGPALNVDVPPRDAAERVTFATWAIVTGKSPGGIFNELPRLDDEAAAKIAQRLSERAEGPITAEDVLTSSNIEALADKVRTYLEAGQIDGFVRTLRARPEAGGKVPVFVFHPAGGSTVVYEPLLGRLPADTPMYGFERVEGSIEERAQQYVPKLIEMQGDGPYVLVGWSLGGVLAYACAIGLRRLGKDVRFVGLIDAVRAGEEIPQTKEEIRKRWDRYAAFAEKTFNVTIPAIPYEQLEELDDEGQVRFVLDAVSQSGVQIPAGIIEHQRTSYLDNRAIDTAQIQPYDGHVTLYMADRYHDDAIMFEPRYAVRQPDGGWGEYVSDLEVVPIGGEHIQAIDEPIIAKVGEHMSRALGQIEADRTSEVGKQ

Row | Compound | pIC50 [1] | other results
1 | Cc1nc(N)nc(C)c1CC(=O)N1CCC2(CC1)OCCCC2O (stereo not drawn) | < 4 | IC50 [2]: > 30.2 µM
2 | COc1cc(/C=C/c2ncc(C(=O)O)s2)cc(Cl)c1O | 4.507 and 4.461 | IC50 [2]: > 50.1 µM and > 30.2 µM (2×) and 45.3 µM; IC50 [3]: 23.7 µM and 18.7 µM
3 | Cc1ccnc(NC(=O)c2[nH]nc(C(C)C)c2Br)c1 | < 4 | IC50 [2]: > 30.2 µM; pIC50 (Plasmodium falciparum): 6.433; IC50 (Plasmodium falciparum): 0.23 µM
4 | Cc1cccc(NC(=O)c2[nH]nc(C(C)C)c2Br)n1 | < 4 | IC50 [3]: > 100 µM
5 | CCc1cc(NCCc2ccc(O)cc2)n2nccc2n1 | 4.438 and 4.726 | Percent Effect (Schistosoma mansoni): -42.86%
6 | FC1(F)CCN(Cc2ccccn2)CC12CCN(c1cccnc1)C2.O=C(O)C(F)(F)F.O=C(O)C(F)(F)F.O=C(O)C(F)(F)F (stereo not drawn) | < 4 | IC50 (Leishmania donovani): > 50.1 µM
7 | c1cc(-c2ccc3c(c2)CCC32CCNCC2)ccn1 | < 4 | IC50 (Histidine--tRNA ligase [4]): > 100 µM
8 | CC(C)C1CCCN1C(=O)Nc1ccc(=O)n(C)c1 (stereo not drawn) | < 4 | IC50 (Histidine--tRNA ligase [4]): 1.01 µM and 1.02 µM and 2.81 µM and 2.75 µM; IC50 (Histidine--tRNA ligase [5]): 19 µM and 22.3 µM; IC50 (Lysine--tRNA ligase): > 50.1 µM
9 | CC(CN1CCN(C)CC1)NC(=O)c1cc(Cl)c2c(c1)OCO2 (stereo not drawn) | < 4 | Percent Effect (Schistosoma mansoni): -52.41%
10 | CCn1cc(NC(=O)NCCN2CCCCCC2=O)cn1 | < 4 | –
11 | c1cncc(-c2ccc3c(c2)C2(CCNCC2)CC3)c1 | < 4 | –
12 | Cc1cc(-c2cnc(NC3CCCC3)nc2-c2ccco2)on1 | 4.667 and < 4.31 | –
13 | COc1ccccc1OCc1cc(C(=O)N2CC(O)C2)n[nH]1 | < 4 | Percent Effect (Schistosoma mansoni): -18.55%
14 | CNC(=O)c1cccc(NC(=O)Cn2nc(-c3cccs3)oc2=O)c1 | < 4 | –
15 | NCC1Cc2cccc(-c3ccc(O)c(F)c3)c2O1 (stereo not drawn) | 4.898 and 4.913 | –
16 | Cc1ccsc1C(=O)N1CC(C(=O)NCC2CC2)C2(CCOCC2)C1 (stereo not drawn) | < 4 | –
17 | Cl.Cl.c1ccc(OC[C@@H]2CCC[C@@]23CNCCO3)nc1 | < 4 | –
18 | Cc1ccsc1C(=O)N1CC(C(=O)N2CCOCC2)C2(CCOCC2)C1 (stereo not drawn) | < 4 | –
19 | Cc1nc(C)n(CC2CCCN(c3ncnc4[nH]ccc34)C2)n1 (stereo not drawn) | 4.827 [middle of 4 runs] | –
20 | CC(C)c1cc(NC(=O)c2ccncc2)[nH]n1 | 4.474 and 4.692 | –
21 | Cn1ncc2c(NC3CCC3)nc(-c3ccncc3)nc21 | < 4 | –
22 | Cc1cc(-c2cnc(NC3CC3)nc2-c2ccoc2C)on1 | < 4 | –
23 | CNc1nc(C(=O)N2CCCC(COc3ccc(F)cc3)C2)cs1 (stereo not drawn) | < 4 | –
24 | CN(C)S(=O)(=O)N1C[C@H](Oc2cccnc2)[C@H]2OCCC[C@H]21.O=C(O)C(F)(F)F | < 4 | –
25 | CC(C)c1n[nH]c(C(=O)Nc2ccccn2)c1Br | < 4 | pIC50 (Plasmodium falciparum): 6.515; IC50 (Plasmodium falciparum): 0.24 µM
26 | CCCS(=O)(=O)N1CCN(CCCO)CC1 | < 4 | –

Reference: ChEMBL document CHEMBL3988442, “University of Dundee, Small-Polar-MMV Screening Library” (2021)
